We go through one molecule from patent publication US12702689B2, “Anti-inflammatory compositions, and uses thereof” (P.L. THOMAS & CO., INC., priority 2022, dated 2026).

Holding throughout (assay type): in vivo, BALB/cJ female mice
Experiment [1] deals with airway reactivity to acetyl-β-methacholine chloride. Nature of the experiment: Airway hyperresponsiveness: total respiratory system resistance (Rrs) to methacholine, flexiVent. As to conditions: for total respiratory system resistance (Rrs) in response to methacholine: OVA+AKBA mice. The source says:
(§1) Allergic airway phenotype was induced by using an ovalbumin (OVA, hen egg) sensitization and challenge model as previously described with modifications [Beigelman, A. et al. Azithromycin attenuates airway inflammation in a noninfectious mouse model of allergic asthma. Chest 136, 498-506 (2009)]. Briefly (FIG. 1), two groups of mice (OVA control and OVA+AKBA) were sensitized with intraperitoneal ovalbumin plus alum on days 0 and 7, challenged for 3 days (day 14 to day 17) via nebulized OVA at 1% in PBS for 30 mins, and harvested 48 hr after final challenge. Supplementation groups (OVA+AKBA) were given 100 mg/kg of water soluble AKBA (pH 7) (PLT Health Solutions, Morristown, NJ, US) in autoclaved mouse water, via gavage, every other day for 10 days and then every day for the remainder of the experiment (9 days). OVA control and naïve mouse continued to receive normal autoclaved mouse water. Mice were weighted at the beginning and end of the experiment. Experiments involving AKBA were conducted twice, with the first group containing 5 mice per group and the second containing 15 mice per group (5 per group for naive). Experiment procedures were identical, and results were pooled for n=20 (n=5 for naive). Animal protocol 102063-0522 was approved by the University of Connecticut Health IACUC board.
Airway reactivity was assessed based on total respiratory system resistance (Rrs) response to increasing doses (0-100 mg/ml) of acetyl-β-methacholine chloride (Sigma-Aldrich, St. Louis, MO). Mice were […] (150 mg/kg ketamine and 10 mg/kg xylazine), underwent tracheostomies and were mechanically ventilated using the flexiVent system (SCIREQ, Montreal, CA). Airway reactivity was determined by assessing forced oscillatory mechanics every 10 s for 4 min following each methacholine challenge.

The test system of experiment [2] is ovalbumin-induced allergic airway inflammation (lung). Put plainly: Lung tissue histology and scoring in OVA allergic airway model. As to conditions: OVA+AKBA mice, 100 mg/kg AKBA.
Description: as §1, with “Experiment procedures were identical, and results were pooled for n=20 (n=5 for naive). Animal protocol 102063-0522 was approved by the University of Connecticut Health IACUC board.” left out
Lung sectioning and staining was performed by the UConn Health Research Histology Core (Farmington, CT, US). […] Sections from the left lung were evaluated in their entirety and representative were images taken. […]

Experiment [3] can be described thus: Body weight change in OVA allergic airway model. As to conditions: OVA+AKBA mice, 100 mg/kg AKBA by gavage, beginning to end of experiment; mean±SD. The source says: Eight-week-old BALB/cJ female mice were purchased from the Jackson Laboratory (Bar Harbor, ME, US) and housed in plastic cages with corncob bedding at the University of Connecticut Health (Farmington, CT.). Animal rooms maintained a 12-h light/dark cycle and were pathogen free. Mice were fed a 18% protein rodent diet (18.6% protein, 6.2% fat, 44.2% carbohydrate, 3.5% soluble fiber, 14.7% total fiber, 5.3% ash) purchased from Envigo (Indianapolis, IN, US) and supplied autoclaved water. Allergic airway phenotype was induced by using an ovalbumin (OVA, hen egg) sensitization and challenge model as previously described with modifications [Beigelman, A. et al. Azithromycin attenuates airway inflammation in a noninfectious mouse model of allergic asthma. Chest 136, 498-506 (2009)]. Briefly (FIG. 1), two groups of mice (OVA control and OVA+AKBA) were sensitized with intraperitoneal ovalbumin plus alum on days 0 and 7, challenged for 3 days (day 14 to day 17) via nebulized OVA at 1% in PBS for 30 mins, and harvested 48 hr after final challenge. Supplementation groups (OVA+AKBA) were given 100 mg/kg of water soluble AKBA (pH 7) (PLT Health Solutions, Morristown, NJ, US) in autoclaved mouse water, via gavage, every other day for 10 days and then every day for the remainder of the experiment (9 days). OVA control and naïve mouse continued to receive normal autoclaved mouse water. […]

For the molecule `CC(=O)O[C@@H]1CC[C@@]2(C)[C@@H](CC[C@]3(C)[C@@H]2C(=O)C=C2[C@@H]4[C@@H](C)[C@H](C)CC[C@]4(C)CC[C@]23C)[C@@]1(C)C(=O)O` [AKBA, 3-O-acetyl-11-keto-b-boswellic acid], the “total respiratory system resistance (Rrs) in response to methacholine” value in experiment [1] (methacholine 12.5 mg, p=0.02 vs OVA control) is on record as 2.38±0.55; in experiment [1] (methacholine 25 mg, p=0.04 vs OVA control), 3.56±1.25. Besides, in experiment [1] (higher methacholine concentrations (above 25 mg)), the “difference in Rrs between OVA control and OVA+AKBA” value is given as “No significant difference”. The “difference in Rrs between all three groups” value in experiment [1] (methacholine 0 mg/mL, ANOVA p=0.341) is reported as “No significant difference”. In addition, the “histology score: inflammation and airway smooth muscle remodeling” value in experiment [2] (score 0-3, blinded, p=0.1823 vs OVA control) is on record as 2.0±0.49. Besides, the “histology score: mucus production” value in experiment [2] (score 0-3, p=0.0278 vs OVA control) was found to be 2.0±0.4. Further, in experiment [3], the “total average weight change, % of starting weight” value is −2.32±4.19%.
